These results are taken from patent US12325708B2, “Adenosine 2 receptor antagonists” (Nektar Therapeutics, priority 2019, dated 2025).

Data set [1] in a line: Brain-to-plasma ratio (B/P) after administration. The data set is classed as in vivo, Sprague-Dawley rats. Particulars: Table 2, brain-to-plasma ratio at 1 h. The method, boiled down: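 Plasma pharmacokinetic parameters determined after oral (PO) administration; brain-to-plasma concentration ratio (B/P) used as the brain penetration measure.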
Another data set addresses T1, A2A receptor (Homo sapiens, UniProt P29274).
T1 construct: purchased
The data set can be described thus: Radioligand receptor binding assay, A2A receptor. The following applies: cell membranes overexpressing A2A receptor, read-out: Potency Ki A2A. The method, boiled down:
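Membranes from cell lines overexpressing human A2A, A1 or A3 receptors were incubated 60 min at room temperature with the receptor-appropriate [3H] tracer. After filtration and washing in 50 mM Tris HCl pH 7.5, bound label was counted by scintillation. IC50 came from nonlinear regression and Ki from the Cheng-Prusoff equation.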

The nature of data set [2]: Hepatic clearance in vitro CLint, human liver microsomes. The data set is classed as in vitro ADME. In general terms: Liver microsomes are vesicles of endoplasmic reticulum, rich in cytochrome P450 enzymes.
Data set [3] in a line: Plasma protein binding (PPB), rat. In kind it is in vitro ADME. The following applies: read-out: Plasma protein binding (PPB) (fu).
The nature of data set [4]: Hepatic clearance in vitro CLint, mouse liver microsomes. The data set is classed as in vitro ADME.
The test system of another data set is mouse CT-26 cells. Description: Antitumor activity in CT26 subcutaneous tumor model in Balb/c mice. The data set is classed as in vivo. The following applies: day 13 vs vehicle. How it is done:
Mice used were ˜ 6-8 week-old female Balb/c mice subcutaneously inoculated with 2×10^6 mouse CT-26 cells. […] The mice were divided into six treatment groups as follows: vehicle (qdx9) PO+IP, Compound 1 (10 mg/kg, qdx9)+an exemplary anti-mouse PD1 (CD279) antibody (BioXCell) (200 μg/mouse, q2dx4); Compound 1 (30 mg/kg, qdx9)+anti-PD1 antibody (200 μg/mouse, q2dx4), Compound 1 (100 mg/kg)+anti-PD1 antibody (200 μg/mouse, q2dx4), anti-PD1 antibody (200 μg/mouse, q2dx4), or preladenant (30 mg/kg, qdx9)+anti-PD1 antibody (200 μg/mouse, q2dx4). Compound 1 and preladenant were administered orally. The anti-PD1 antibody was administered IP. Body weight was measured daily. Tumor growth of the CT26 cells was monitored three times per week by measuring the tumor volume size using a caliper with the results shown in FIG. 5.

Data set [5] is described as follows: Hepatic clearance in vitro CLint, rat liver microsomes. The data set is classed as in vitro ADME.
A further data set deals with T2, A3 receptor (Homo sapiens, UniProt P0DMS8).
T2 construct: purchased
T2 sequence (P0DMS8 1-318): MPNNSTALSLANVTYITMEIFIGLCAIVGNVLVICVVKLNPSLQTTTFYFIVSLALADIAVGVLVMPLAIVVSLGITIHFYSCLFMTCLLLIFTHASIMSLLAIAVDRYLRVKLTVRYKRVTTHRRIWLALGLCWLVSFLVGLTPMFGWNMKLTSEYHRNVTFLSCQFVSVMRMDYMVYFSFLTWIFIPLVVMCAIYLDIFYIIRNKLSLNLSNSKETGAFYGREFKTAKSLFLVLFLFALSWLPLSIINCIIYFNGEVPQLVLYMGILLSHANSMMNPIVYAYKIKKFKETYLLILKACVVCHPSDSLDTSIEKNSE
The data set can be described thus: Radioligand receptor binding assay, A3 receptor. The following applies: cell membranes overexpressing A3 receptor, read-out: Potency Ki A3. Here is the method: Using conventional receptor binding assay techniques, Compounds 1-24 were assayed to determine binding activity at the A2A, A1, and A3 receptors with the results shown in Table 7.
Receptor binding affinity of Compounds 1-24 was measured using radioligand binding assays using commercially obtained cell membranes prepared from cell lines overexpressing the A2A, A1, or A3 receptors. Briefly, cell membrane preparations from cells expressing the specific receptor were mixed with the appropriate [^3H]-labeled tracer for the specific receptor and the test compound or a known inhibitor of receptor-ligand binding. Following 60 min incubation at room temperature to allow receptor-ligand complex formation, the complexes were collected by filtration, washed with 50 mM Tris HCl (pH 7.5) to remove radioligand that was not receptor-bound, and the remaining radioactivity determined by liquid scintillation counting. Specific radioligand binding was calculated for each test compound concentration and IC50 values were determined by non-linear, regression analysis. Inhibition constants (Ki) were calculated using the equation of Cheng and Prusoff using the observed IC50 of the tested compound, the concentration of radioligand employed in the assay and the experimentally determined values for the Kd of the ligand.

Data set [6] can be described thus: Plasma pharmacokinetic parameters of Compound 1 in dogs. The following applies: dog. In kind it is in vivo. From the text: (§1) Pharmacokinetic parameters were further estimated in vivo after IV or PO administration of Compound 1 in mice and dogs with the results provided in Table 4 below.
The nature of the next data set: Solubility. The data set is classed as physicochemical.
A short description of data set [7]: Hepatic clearance in vitro CLint, dog liver microsomes. In kind it is in vitro ADME.
A short description of data set [8]: Plasma protein binding (PPB), dog. The data set is classed as in vitro ADME. Particulars: read-out: Plasma protein binding (PPB) (fu).
Data set [9] in a line: Plasma pharmacokinetic parameters of Compound 1 in mice. The data set is classed as in vivo. Particulars: mouse, PO 30 mg/kg.
Description: as §1

Data set [10] can be described thus: Plasma protein binding (PPB), human. The following applies: read-out: Plasma protein binding (PPB) (fu). The data set is classed as in vitro ADME.
The nature of data set [11]: Plasma protein binding (PPB), mouse. The following applies: read-out: Plasma protein binding (PPB) (fu). The data set is classed as in vitro ADME.
Data set [12] is described as follows: Permeability Caco-2 Papp and efflux ratio. In kind it is in vitro ADME. Particulars: human.

Converted amounts (≈) assume the structure as drawn.

As usually defined, the Kp is the ratio of the level in a tissue or fluid to that in plasma or blood. In general, Ki refers to the equilibrium dissociation constant of an inhibitor or competing ligand from its target. By microsomal CLint is commonly meant a measure of how fast metabolising enzymes remove a compound, apart from limits set by blood flow. Lower therefore signals greater metabolic stability. As usually defined, the clearance is a measure of how efficiently the substance is removed, as volume per time. The low end stands for a low capacity for elimination, the high end for a high capacity for elimination. For orientation: half-life means the time needed for the level to fall by half in the phase considered. Higher therefore signals slow decline. One may read the AUC(0-inf) as total exposure, with the tail of the curve extrapolated. Read a low AUC(0-inf) as less exposure. By solubility is commonly meant the dissolved amount per volume that the medium holds. One may read the Papp as a coefficient for how fast a substance crosses the barrier.

T1 sequence (P29274 whole entry): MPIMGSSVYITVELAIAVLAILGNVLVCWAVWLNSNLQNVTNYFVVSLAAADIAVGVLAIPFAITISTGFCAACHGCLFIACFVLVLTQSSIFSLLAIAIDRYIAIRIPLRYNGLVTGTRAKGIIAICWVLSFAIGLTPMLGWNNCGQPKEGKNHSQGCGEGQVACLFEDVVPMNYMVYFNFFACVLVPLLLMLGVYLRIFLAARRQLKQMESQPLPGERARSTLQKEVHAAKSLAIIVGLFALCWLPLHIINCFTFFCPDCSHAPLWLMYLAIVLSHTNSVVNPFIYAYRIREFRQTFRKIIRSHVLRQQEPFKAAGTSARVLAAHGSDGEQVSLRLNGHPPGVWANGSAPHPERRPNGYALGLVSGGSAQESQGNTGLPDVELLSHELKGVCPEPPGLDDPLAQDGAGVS

As for `COCCOc1cnc(N2CCN(CCN(C)c3cc4nc(-c5ncco5)nn4c(N)n3)CC2)c(F)c1` [Compound 4, N^7-(2-{4-[3-fluoro-5-(2-methoxyethoxy)pyridin-2-yl]piperazin-1-yl}ethyl)-N^7-methyl-2-(1,3-oxazol-2-yl)[1,2,4]triazolo[1,5-c]pyrimidine-5,7-diamine], in data set [1] (Sprague-Dawley, rat), the Kp at 1 h is 0.04. For the same compound, the Ki on A2A receptor was determined as 2 nM.
With `COCCOc1ccc(N2CCN(CCN(C)c3cc4nc(-c5ncco5)nn4c(N)n3)CC2)cc1` [Compound 1, N^7-(2-{4-[4-(2-methoxyethoxy)phenyl]piperazin-1-yl}ethyl)-N^7-methyl-2-(1,3-oxazol-2-yl)[1,2,4]triazolo[1,5-c]pyrimidine-5,7-diamine], the intrinsic metabolic clearance (microsomal CLint) is 43 µL/min/mg in data set [2], 29 µL/min/mg in data set [4], 17 µL/min/mg in data set [5] and under 1 µL/min/mg in [7]. In [1], the “B/P (1 h)” value is 0.06^1. The fraction unbound amounted to 0.15 in data set [3], 0.43 in [8], 0.39 in [10] and 0.19 in data set [11]. Further, the “% TGI” value is recorded as 34% in the data set with mouse CT-26 cells (10 mg/kg qdx9 PO + anti-PD1 antibody 200 μg/mouse q2dx4 IP), 41^1% in the data set on mouse CT-26 cells (30 mg/kg qdx9 PO + anti-PD1 antibody 200 μg/mouse q2dx4 IP) and 47^2% in the data set on mouse CT-26 cells (100 mg/kg PO + anti-PD1 antibody 200 μg/mouse q2dx4 IP). The Ki at A3 receptor was over 10 µM; on A2A receptor, 6 nM. In addition, in [6] (PO 1&10 mg/kg vs IV 0.2 mg/kg), the F is listed as over 100%. The compound also registered a clearance in data set [6] (plasma, IV 0.2 mg/kg) of 12 mL/min/kg. In addition, the half-life in data set [6] (plasma, IV 0.2 mg/kg) was 360 min. The Vd in data set [6] (plasma, IV 0.2 mg/kg, read-out: Vss) came out at 5.2 L/kg. In addition, the AUC(0-inf) in data set [6] (plasma, PO 1 mg/kg) came out at 2020 ng·h/mL; in data set [6] (plasma, PO 10 mg/kg) it was 17900 ng·h/mL; in data set [9], 5760 ng·h/mL. In addition, the solubility was about 5000 µM (≈ 2470 µg/mL) in the data set “Solubility” (pH ~3) and 20 to 40 µM (≈ 9.87 to 19.7 µg/mL) in the data set “Solubility” (pH ~7). The Papp in data set [12] was determined as 14.5 ×10⁻⁶ cm/s. Besides, in data set [12] (read-out: Efflux Ratio (ER)), the efflux ratio was found to be 1.6.
